For assay [1], the system named is BC cells stably expressing the reporter zipGFP-Casp3. The assay can be described thus: Apoptosis of encapsulated BC cells (zipGFP-Casp3 reporter), monoculture or multi-culture with LC cells. The class given is cell-based. As to conditions: micromolar Tamoxifen (1 μM to 10 μM), 96 hours, with vs without LC cells; FIG. 4.
Procedure: Image acquisition was performed with an automated confocal microscope. Cell segmentation and quantification of cell fluorescence intensities were performed with the software MetaXpress (Molecular Devices). For the quantification of apoptosis, cell fluorescence intensities from far-red-labelled capsules were measured and the green fluorescence was normalized with the red fluorescence. […] Data is representative of 3 independent replicates.
Dispense capsules in wells of a 96-well imaging quality plate by continuously pipetting up and down to maintain the capsules in suspension before transferring the proper volume into the well.
Half of wells are not filled with LC capsules (conditions with BC cells only)
Incubate the plate at 37° C. for 96 hours.
For assay [2], the system named is BC cells stably expressing the dual-reporter FUCCI. Description: Proliferation of encapsulated BC cells (FUCCI dual reporter), monoculture or multi-culture with LC cells. Format: cell-based. As to conditions: micromolar Tamoxifen (1 μM to 10 μM), 96 hours; FIG. 5. The source says:
LC cells were encapsulated in green-labelled alginate capsules, BC cells stably expressing the dual reporter gene FUCCI (active proliferating cells are green, not-proliferating cells (latent) are red) were encapsulated in unlabelled alginate capsules, and BC cells stably expressing the reporter gene zipGFP-Casp3 (all cells are red (reporter expression control) and cells become green upon apoptosis induction) were encapsulated in far-red-labelled alginate capsules. […] Image acquisition was performed with an automated confocal microscope. Cell segmentation and quantification of cell fluorescence intensities were performed with the software MetaXpress (Molecular Devices). For the quantification of proliferation, cell fluorescence intensities from unlabelled capsules were measured. […] Data is representative of 3 independent replicates.
Induction of apoptosis is measured by automated confocal microscopy (HCS) in BC cells stably expressing the reporter zipGFP-Casp3 and proliferation is measured at the same time in BC cells stably expressing the dual-reporter FUCCI. […]

On to `CC/C(=C(\c1ccccc1)c1ccc(OCCN(C)C)cc1)c1ccccc1` [Tamoxifen], for which the “induction of apoptosis in BC cells” value in assay [1] is listed as “increased by Tamoxifen in a dose-dependent manner only in co-culture with LC cells”. In addition, the cell proliferation inhibition entry in assay [2] is “already maximal at 1 μM”.

These data come from US20220349875A1, “METHOD TO INDEPENDENTLY ANALYZE MULTIPLE BIOLOGICAL PROCESSES IN ENCAPSULATED 3D CELL CO-CULTURES” (UNIVERSITÉ DE GENÈVE, priority 2019, published 2022).
